Literature values in patent publication US20140328949A1, “ELECTROCHEMICALLY GENERATED ANTIMICROBIAL SODIUM HYDROXIDE SOLUTION” (priority 2013, published 2014).

Test system: hairy foot warts
Conditions: for efficacy of footbath treatment against hairy foot warts: footbaths, formalin 5%, zinc sulfate 3× footbaths, spread and mild lesions

O=S(=O)([O-])[O-].[Zn+2] [Zinc sulfate]
efficacy against more serious hairy foot wart lesions (3× footbaths, 1990 study): ineffective | efficacy of footbath treatment against hairy foot warts: effective at controlling the spread of hairy foot warts and treating mild lesions

O=S(=O)([O-])[O-].[Cu+2] [copper sulfate, Copper sulfate]
efficacy of footbath treatment against hairy foot warts: not an effective treatment

C=O [formalin]
efficacy of footbath treatment against hairy foot warts: effective in controlling hairy foot wart outbreaks
